From patent publication US8614206B2 (Genentech, Inc., priority 2011, dated 2013)
Where two headings read alike, the source gives them in different places.

Key:
[1] = system: MM1.S (multiple myeloma) cells; experiment: In vitro cell proliferation, MM1.S multiple myeloma cells (CellTiter-Glo, ATP); format: cell-based; conditions: read-out: Prolif MM1S ATP (EC50)
Method: BaF3, a murine interleukin-3 dependent pro-B cell line, parental cells, BaF3 PIM1 cells, BaF3 PIM2 cells, and MM1.S (multiple myeloma) cells were seeded at 2 k/well, 5 k/well, 5 k/well, and 10 k/well respectively, in a 384-well plate, at 45 μL/well. Test compound was added at 5 μL/well. BaF3 cells (parental and transfected) were incubated overnight, while MM1.S cells were incubated for 72 hours at 37° C., 5% CO2. […] IC50/EC50 values for the test compound were calculated.

BaF3 parental cells = experiment: In vitro cell proliferation, BaF3 parental line + IL3 (CellTiter-Glo); format: cell-based, murine
Method: BaF3 parental line was obtained from the DSMZ repository. BaF3 lines transfected with PIM 1 or PIM2 were generated. Mouse IL-3 was purchased from R&D Systems. G418 was purchased from Clontech. Media for BaF3 parental line contained RPMI, 10% FBS, 2 mM L-Glutamine, 2 ng/mL mIL-3. Media for BaF3 PIM1 & 2 lines contained RPMI, 10% FBS, 2 mM L-Glutamine, 250 μg/mL.
BaF3, a murine interleukin-3 dependent pro-B cell line, parental cells, BaF3 PIM1 cells, BaF3 PIM2 cells, and MM1.S (multiple myeloma) cells were seeded at 2 k/well, 5 k/well, 5 k/well, and 10 k/well respectively, in a 384-well plate, at 45 μL/well. Test compound was added at 5 μL/well. BaF3 cells (parental and transfected) were incubated overnight, while MM1.S cells were incubated for 72 hours at 37° C., 5% CO2. CELL TITER GLO® Reagent (Promega) was added at 50 μL/well, the plates were incubated for 30 minutes, and their luminescence read on an HT Analyst. IC50/EC50 values for the test compound were calculated.

[2] = BaF3 parental cells with IL-3, incubated overnight, read-out: Prolif BaF3 + IL3 (IC50)
[3] = Mus musculus, BaF3, BaF3 parental cells with IL-3, incubated overnight, read-out: Prolif BaF3 + IL3 (IC50)
[4] = Mus musculus, BaF3, BaF3 parental cells with IL-3, incubated overnight, read-out: Prolif BaF3 IL3 (IC50)

Row | EC50 ([1]; 72 hours) [µM] | EC50 ([1]; Homo sapiens, MM1.S, 72 h) [µM] | SMILES | IC50 (BaF3 parental cells; [2]) [µM] | IC50 (BaF3 parental cells; [3]) [µM] | IC50 (BaF3 parental cells; [4]) [µM]
1 | 0.139 | – | COC1(C)CC(N)CCN(c2c(NC(=O)c3nc(-c4c(F)cccc4F)sc3N)cnn2C)C1 (single isomer, unassigned) [Example 353, 5-amino-N-[5-(5-amino-3-methoxy-3-methyl-azepan-1-yl)-1-methyl-pyrazol-4-yl]-2-(2,6-difluorophenyl)thiazole-4-carboxamide] | 25 | – | –
2 | – | 0.0699 | CO[C@H]1CCC(c2c(NC(=O)c3nc(-c4ccccc4F)sc3N)cnn2C)CC[C@@H]1N (single isomer, unassigned) [Example 414] | – | > 25 | –
3 | – | 4.9 | Cn1ncc(NC(=O)c2nc(-c3c(F)cccc3F)sc2N)c1N1CCCC(C)(N)CC1 (single isomer, unassigned) [Example 436, 5-amino-N-[5-(4-amino-4-methyl-azepan-1-yl)-1-methyl-pyrazol-4-yl]-2-(2,6-difluorophenyl)thiazole-4-carboxamide] | – | 8.3 | –
4 | 1.4 | – | Cn1ncc(NC(=O)c2nc(-c3c(F)cccc3F)sc2N)c1N1CCC(N)CC2(CCO2)C1 (single isomer, unassigned) [Example 448, 5-amino-N-[5-(6-amino-1-oxa-9-azaspiro[3.6]decan-9-yl)-1-methyl-pyrazol-4-yl]-2-(2,6-difluorophenyl)thiazole-4-carboxamide] | – | > 25 | –
5 | 0.0793 | – | Cn1ncc(NC(=O)c2nc(-c3c(F)cccc3F)sc2N)c1N1CCC(N)CC2(CCO2)C1 (single isomer, unassigned) [Example 452, 5-amino-N-[5-(6-amino-1-oxa-9-azaspiro[3.6]decan-9-yl)-1-methyl-pyrazol-4-yl]-2-(2,6-difluorophenyl)thiazole-4-carboxamide] | 24.7 | – | –
6 | > 25 | – | Cn1ncc(NC(=O)c2nc(-c3c(F)cccc3F)sc2N)c1C1CCC(N)CC(C)(O)C1 (single isomer, unassigned) [Example 456, 5-amino-N-[5-(5-amino-3-hydroxy-3-methyl-cycloheptyl)-1-methyl-pyrazol-4-yl]-2-(2,6-difluorophenyl)thiazole-4-carboxamide] | – | > 25 | –
7 | 4.8 | – | Cn1ncc(NC(=O)c2nc(-c3c(F)cccc3F)sc2N)c1C1CCC(N)CC(C)(O)C1 (single isomer, unassigned) [Example 467, 5-amino-N-[5-(5-amino-3-hydroxy-3-methyl-cycloheptyl)-1-methyl-pyrazol-4-yl]-2-(2,6-difluorophenyl)thiazole-4-carboxamide] | > 25 | – | –
8 | 0.824 | – | Cn1ncc(NC(=O)c2nc(-c3c(F)cccc3F)sc2N)c1C1CCC(N)CC(C)(O)C1 (single isomer, unassigned) [Example 468, 5-amino-N-[5-(5-amino-3-hydroxy-3-methyl-cycloheptyl)-1-methyl-pyrazol-4-yl]-2-(2,6-difluorophenyl)thiazole-4-carboxamide] | > 25 | – | –
9 | – | > 25 | Cn1ncc(NC(=O)c2nc(-c3c(F)cccc3F)sc2N)c1N1CCNC[C@]2(CCO2)C1 (single isomer, unassigned) [Example 483] | – | > 25 | –
10 | 2.2 | – | COC1(C)CCN(c2c(NC(=O)c3nc(-c4c(F)cccc4F)sc3N)cnn2C)CCC1N (single isomer, unassigned) [Example 502, 5-amino-N-[5-(5-amino-4-methoxy-4-methyl-azepan-1-yl)-1-methyl-pyrazol-4-yl]-2-(2,6-difluorophenyl)thiazole-4-carboxamide] | – | 11.9 | –
11 | 0.108 | – | COC1(C)CCN(c2c(NC(=O)c3nc(-c4c(F)cccc4F)sc3N)cnn2C)CCC1N (single isomer, unassigned) [Example 503, 5-amino-N-[5-(5-amino-4-methoxy-4-methyl-azepan-1-yl)-1-methyl-pyrazol-4-yl]-2-(2,6-difluorophenyl)thiazole-4-carboxamide] | 11 | – | –
12 | – | 2 | Cn1ncc(NC(=O)c2nc(-c3c(F)cccc3F)sc2N)c1N1CCC(N)C(C(F)F)CC1 (single isomer, unassigned) [Example 512, 5-amino-N-[5-[4-amino-5-(difluoromethyl)azepan-1-yl]-1-methyl-pyrazol-4-yl]-2-(2,6-difluorophenyl)thiazole-4-carboxamide] | 24.6 | – | –
13 | – | 0.0651 | Cn1ncc(NC(=O)c2nc(-c3c(F)cccc3F)sc2N)c1N1CC[C@H](N)C[C@@H](F)C1 (stereo in doubt) [Example 154, 5-amino-N-(5-(5-amino-3-fluoroazepan-1-yl)-1-methyl-1H-pyrazol-4-yl)-2-(2,6-difluorophenyl)thiazole-4-carboxamide] | – | – | 24.5
14 | – | 17.9 | CNCC1CCN(c2c(NC(=O)c3nc(-c4c(F)cccc4F)sc3N)cnn2C)CC1 [Example 101, 5-Amino-2-(2,6-difluorophenyl)-N-(1-methyl-5-(4-((methylamino)methyl)piperidin-1-yl)-1H-pyrazol-4-yl)thiazole-4-carboxamide] | – | – | 19.5
15 | – | 19 | CC[C@H]1CNCCN1c1c(NC(=O)c2nc(-c3c(F)cccc3F)sc2N)cnn1C [Example 113, (S)-5-Amino-2-(2,6-difluorophenyl)-N-(5-(2-ethylpiperazin-1-yl)-1-methyl-1H-pyrazol-4-yl)thiazole-4-carboxamide] | – | – | > 25
16 | – | 1.4 | Cn1ncc(NC(=O)c2nc(-c3c(F)cccc3F)sc2N)c1N1CCC2(CCNC2)CC1 [Example 124, 5-Amino-2-(2,6-difluorophenyl)-N-(1-methyl-5-(2,8-diazaspiro[4.5]decan-8-yl)-1H-pyrazol-4-yl)thiazole-4-carboxamide] | – | – | 22.1
17 | – | 0.11 | Cn1ncc(NC(=O)c2nc(-c3c(F)cccc3F)sc2N)c1N1CC[C@@H](N)C[C@@H](F)C1 [Example 126, 5-amino-N-(5-((3R,5R)-5-amino-3-fluoroazepan-1-yl)-1-methyl-1H-pyrazol-4-yl)-2-(2,6-difluorophenyl)thiazole-4-carboxamide] | – | – | > 25
18 | – | 6.4 | Cn1ncc(NC(=O)c2nc(-c3c(F)cccc3F)sc2N)c1N1CCNCC2(CC2)C1 [Example 313, 5-amino-N-[5-(5,8-diazaspiro[2.6]nonan-8-yl)-1-methyl-pyrazol-4-yl]-2-(2,6-difluorophenyl)thiazole-4-carboxamide] | – | 17 | –
19 | 9 | – | COC1CCN(c2c(NC(=O)c3nc(-c4c(F)cccc4F)sc3N)cnn2C)CCC1N (stereo not drawn) [Example 314, 5-amino-N-[5-(4-amino-5-methoxy-azepan-1-yl)-1-methyl-pyrazol-4-yl]-2-(2,6-difluorophenyl)thiazole-4-carboxamide] | – | 13.9 | –
20 | 0.163 | – | COC1CC(N)CCN(c2c(NC(=O)c3nc(-c4c(F)cccc4F)sc3N)cnn2C)C1 (stereo not drawn) [Example 316, 5-amino-N-[5-(5-amino-3-methoxy-azepan-1-yl)-1-methyl-pyrazol-4-yl]-2-(2,6-difluorophenyl)thiazole-4-carboxamide] | > 25 | – | –
21 | 0.663 | – | COC1CC(N)CCN(c2c(NC(=O)c3nc(-c4c(F)cccc4F)sc3N)cnn2C)C1 (stereo not drawn) [Example 317, 5-amino-N-[5-(5-amino-3-methoxy-azepan-1-yl)-1-methyl-pyrazol-4-yl]-2-(2,6-difluorophenyl)thiazole-4-carboxamide] | > 25 | – | –
22 | 0.118 | – | COC1CC(N)CCN(c2c(NC(=O)c3nc(-c4c(F)cccc4F)sc3N)cnn2C)C1 (stereo not drawn) [Example 320, 5-amino-N-[5-(5-amino-3-methoxy-azepan-1-yl)-1-methyl-pyrazol-4-yl]-2-(2,6-difluorophenyl)thiazole-4-carboxamide] | – | 25 | –
23 | 0.00846 | – | COC1CC(N)CCN(c2c(NC(=O)c3nc(-c4c(F)cccc4F)sc3N)cnn2C)C1 (stereo not drawn) [Example 321, 5-amino-N-[5-(5-amino-3-methoxy-azepan-1-yl)-1-methyl-pyrazol-4-yl]-2-(2,6-difluorophenyl)thiazole-4-carboxamide] | > 25 | – | –
24 | – | 4.9 | Cn1ncc(NC(=O)c2nc(-c3c(F)cccc3F)sc2N)c1N1CCCC2(CCCN2)CC1 (stereo not drawn) [Example 351, 5-amino-N-[5-(1,9-diazaspiro[4.6]undecan-9-yl)-1-methyl-pyrazol-4-yl]-2-(2,6-difluorophenyl)thiazole-4-carboxamide] | – | 5.6 | –
25 | – | 0.168 | Cn1ncc(NC(=O)c2nc(-c3c(F)cccc3F)sc2N)c1N1CC2CNCC(C1)O2 [Example 354, 5-amino-2-(2,6-difluorophenyl)-N-[1-methyl-5-(9-oxa-3,7-diazabicyclo[3.3.1]nonan-3-yl)pyrazol-4-yl]thiazole-4-carboxamide] | – | 14.4 | –
26 | 2.4 | – | CNC1CCN(c2c(NC(=O)c3nc(-c4c(F)cccc4F)sc3N)cnn2C)CC(F)(F)C1 (stereo not drawn) [Example 408, 5-amino-N-[5-[3,3-difluoro-5-(methylamino)azepan-1-yl]-1-methyl-pyrazol-4-yl]-2-(2,6-difluorophenyl)thiazole-4-carboxamide] | – | 16.5 | –
27 | 0.903 | – | CNC1CCN(c2c(NC(=O)c3nc(-c4c(F)cccc4F)sc3N)cnn2C)CC(F)(F)C1 (stereo not drawn) [Example 409, 5-amino-N-[5-[3,3-difluoro-5-(methylamino)azepan-1-yl]-1-methyl-pyrazol-4-yl]-2-(2,6-difluorophenyl)thiazole-4-carboxamide] | 10.8 | – | –
